Test results reported in patent US7829593B2, “Glutamine-containing compositions and a method for increasing blood flow using same” (Ajinomoto Co., Inc., priority 2006, dated 2010).
Where two headings read alike, the source gives them in different places.

Key:
[1] = system: blood pressure and vascular resistance in humans; settings: 78 kg average body weight, cited from earlier work
[2] = system: blood flow in the capillary vessels of various organs of rats; experiment: Changes in blood flow in various organs after oral administration of glutamine to rats (microsphere method); assay type: in vivo, rat; settings: for Change in blood flow after administration of amino acid, on the basis of 100% blood flow before administration: male SD rats, 50 mg/kg glutamine into the stomach
Description: (a) Glutamine was given to rats and then the changes in blood flow in the capillary vessels of their various organs were determined. (b) Male SD rats having a body weight of about 400 g were subjected to the experiment. (c) The rats were anesthetized by pentobarbital, and catheters were placed in the left ventricle and the right […] of each rat. […] Through the catheter located from the carotid artery to the left ventricle, yellow and red microspheres were each injected before and after the administration of the amino acid solution. […] For the control group, distilled water was administered. (b) Operation: Catheters were inserted into the carotid and femoral arteries of the rats under anesthesia, the microspheres were injected via these catheters, and blood samples were taken. […] After a sufficient interval after the second injection of the microspheres, the rats were euthanized. The muscles, alimentary canals, liver, kidneys, spleen, heart, brain, fat tissue, and abdominal skin were extracted. The microspheres which had collected in each organ were removed and the change in the ratio of the blood flow was calculated from the amounts of microspheres present in each organ.

Compound | Effect on blood pressure and vascular resistance ([1]; 6 g arginine intravenously) | Effect on blood pressure and vascular resistance ([1]; 30 g arginine intravenously) | Change in blood flow after administration of amino acid, on the basis of 100% blood flow before administration ([2]; Abdominal skin) [%] | Change in blood flow after administration of amino acid, on the basis of 100% blood flow before administration ([2]; Brain) [%] | Change in blood flow after administration of amino acid, on the basis of 100% blood flow before administration ([2]; Dorsal skin) [%] | Change in blood flow after administration of amino acid, on the basis of 100% blood flow before administration ([2]; Duodenum) [%] | Change in blood flow after administration of amino acid, on the basis of 100% blood flow before administration ([2]; Fat tissues) [%] | Change in blood flow after administration of amino acid, on the basis of 100% blood flow before administration ([2]; Gastrocnemius) [%] | Change in blood flow after administration of amino acid, on the basis of 100% blood flow before administration ([2]; Heart) [%] | Change in blood flow after administration of amino acid, on the basis of 100% blood flow before administration ([2]; Kidney) [%] | Change in blood flow after administration of amino acid, on the basis of 100% blood flow before administration ([2]; Liver) [%] | Change in blood flow after administration of amino acid, on the basis of 100% blood flow before administration ([2]; Soleus) [%] | Change in blood flow after administration of amino acid, on the basis of 100% blood flow before administration ([2]; Spleen) [%] | Blood flow in the capillary vessels (result in words) ([2]; abdominal skin, spleen, liver, heart and brain, rats, 50 mg/kg glutamine)
N=C(N)NCCC[C@H](N)C(=O)O [arginine] | did not have either effect | lowered blood pressure and vascular resistance |  |  |  |  |  |  |  |  |  |  |  | 
NC(=O)CC[C@H](N)C(=O)O [Glutamine, glutamine] |  |  | 146 | 163 | 154 | 136 | 137 | 105 | 259 | 113 | 226 | 146 | 146 | significant increase in blood flow
